Data taken from ChEMBL document CHEMBL5291721, “A preclinical secondary pharmacology resource illuminates target-adverse drug reaction associations of marketed drugs” (Nat Commun, 2023).

Key:
[1] = target: Synaptic vesicular amine transporter (Rattus norvegicus, UniProt Q01827); type: functional
D(1A) dopamine receptor [2] = target: T1, D(1A) dopamine receptor (Homo sapiens, UniProt P21728)
[3] = target: Beta-3 adrenergic receptor (Homo sapiens, UniProt P13945)
[4] = target: Voltage-dependent N-type calcium channel subunit alpha-1B (Rattus norvegicus, UniProt Q02294); type: functional
[5] = target: T2, Corticotropin-releasing factor receptor 1 (Homo sapiens, UniProt P34998)
T2 sequence (P34998 whole entry): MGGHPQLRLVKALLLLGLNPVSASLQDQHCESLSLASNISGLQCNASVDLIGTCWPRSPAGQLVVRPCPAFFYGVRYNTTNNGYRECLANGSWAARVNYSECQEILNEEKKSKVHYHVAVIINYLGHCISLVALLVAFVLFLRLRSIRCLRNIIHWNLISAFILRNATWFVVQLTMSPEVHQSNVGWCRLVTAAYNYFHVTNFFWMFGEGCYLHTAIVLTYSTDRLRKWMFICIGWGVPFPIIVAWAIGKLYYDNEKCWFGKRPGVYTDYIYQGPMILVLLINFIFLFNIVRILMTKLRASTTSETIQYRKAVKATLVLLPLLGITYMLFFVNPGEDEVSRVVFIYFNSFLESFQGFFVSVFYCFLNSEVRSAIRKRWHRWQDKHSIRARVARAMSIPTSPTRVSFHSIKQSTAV

[6] = target: T3, Endothelin receptor type B (Homo sapiens, UniProt P24530)
T3 sequence (P24530 whole entry): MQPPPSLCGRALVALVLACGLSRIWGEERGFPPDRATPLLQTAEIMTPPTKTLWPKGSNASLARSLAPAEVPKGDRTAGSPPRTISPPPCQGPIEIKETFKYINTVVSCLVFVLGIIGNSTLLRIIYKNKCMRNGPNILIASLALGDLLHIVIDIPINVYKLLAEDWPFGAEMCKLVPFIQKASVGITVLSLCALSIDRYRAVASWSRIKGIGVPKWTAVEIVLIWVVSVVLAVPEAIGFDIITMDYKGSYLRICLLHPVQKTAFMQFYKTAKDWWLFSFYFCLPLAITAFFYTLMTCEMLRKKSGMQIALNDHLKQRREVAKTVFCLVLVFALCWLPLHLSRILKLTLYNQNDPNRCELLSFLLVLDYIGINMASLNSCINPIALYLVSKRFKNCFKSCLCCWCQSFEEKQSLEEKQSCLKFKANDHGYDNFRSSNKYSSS

[7] = target: 5-hydroxytryptamine receptor 2B (Homo sapiens, UniProt P41595)
[8] = target: T4, Neuropeptide Y receptor type 2 (Homo sapiens, UniProt P49146)
T4 sequence (P49146 whole entry): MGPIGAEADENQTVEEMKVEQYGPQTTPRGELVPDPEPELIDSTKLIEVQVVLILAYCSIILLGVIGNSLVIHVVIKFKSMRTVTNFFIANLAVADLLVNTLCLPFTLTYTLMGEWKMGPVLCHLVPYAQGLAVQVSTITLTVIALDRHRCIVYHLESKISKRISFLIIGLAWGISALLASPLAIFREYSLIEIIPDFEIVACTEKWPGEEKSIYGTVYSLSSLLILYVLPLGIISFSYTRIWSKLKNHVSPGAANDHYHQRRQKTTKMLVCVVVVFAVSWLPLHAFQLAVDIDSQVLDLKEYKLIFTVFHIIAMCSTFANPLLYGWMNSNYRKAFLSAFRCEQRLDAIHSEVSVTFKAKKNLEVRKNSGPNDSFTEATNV

D(1A) dopamine receptor [9] = target: T1, D(1A) dopamine receptor; type: functional, cell-based
Acetylcholinesterase = Acetylcholinesterase (Homo sapiens, UniProt P22303); type: functional
Thromboxane A2 receptor [10] = target: T5, Thromboxane A2 receptor (Homo sapiens, UniProt P21731); type: functional
T5 sequence (P21731 whole entry): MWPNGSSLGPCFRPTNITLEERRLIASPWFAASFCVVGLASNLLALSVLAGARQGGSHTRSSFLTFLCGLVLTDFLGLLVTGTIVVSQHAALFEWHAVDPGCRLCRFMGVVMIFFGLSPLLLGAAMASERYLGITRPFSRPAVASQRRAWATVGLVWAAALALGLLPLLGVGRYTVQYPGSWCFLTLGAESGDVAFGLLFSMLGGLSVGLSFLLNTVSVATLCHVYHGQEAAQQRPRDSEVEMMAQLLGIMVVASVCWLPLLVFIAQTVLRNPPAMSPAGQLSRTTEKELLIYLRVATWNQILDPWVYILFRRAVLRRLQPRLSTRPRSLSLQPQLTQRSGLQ

Thromboxane A2 receptor [11] = target: T5, Thromboxane A2 receptor; type: functional, cell-based
Androgen receptor = target: T6, Androgen receptor (Rattus norvegicus, UniProt P15207); type: functional
T6 sequence (P15207 whole entry): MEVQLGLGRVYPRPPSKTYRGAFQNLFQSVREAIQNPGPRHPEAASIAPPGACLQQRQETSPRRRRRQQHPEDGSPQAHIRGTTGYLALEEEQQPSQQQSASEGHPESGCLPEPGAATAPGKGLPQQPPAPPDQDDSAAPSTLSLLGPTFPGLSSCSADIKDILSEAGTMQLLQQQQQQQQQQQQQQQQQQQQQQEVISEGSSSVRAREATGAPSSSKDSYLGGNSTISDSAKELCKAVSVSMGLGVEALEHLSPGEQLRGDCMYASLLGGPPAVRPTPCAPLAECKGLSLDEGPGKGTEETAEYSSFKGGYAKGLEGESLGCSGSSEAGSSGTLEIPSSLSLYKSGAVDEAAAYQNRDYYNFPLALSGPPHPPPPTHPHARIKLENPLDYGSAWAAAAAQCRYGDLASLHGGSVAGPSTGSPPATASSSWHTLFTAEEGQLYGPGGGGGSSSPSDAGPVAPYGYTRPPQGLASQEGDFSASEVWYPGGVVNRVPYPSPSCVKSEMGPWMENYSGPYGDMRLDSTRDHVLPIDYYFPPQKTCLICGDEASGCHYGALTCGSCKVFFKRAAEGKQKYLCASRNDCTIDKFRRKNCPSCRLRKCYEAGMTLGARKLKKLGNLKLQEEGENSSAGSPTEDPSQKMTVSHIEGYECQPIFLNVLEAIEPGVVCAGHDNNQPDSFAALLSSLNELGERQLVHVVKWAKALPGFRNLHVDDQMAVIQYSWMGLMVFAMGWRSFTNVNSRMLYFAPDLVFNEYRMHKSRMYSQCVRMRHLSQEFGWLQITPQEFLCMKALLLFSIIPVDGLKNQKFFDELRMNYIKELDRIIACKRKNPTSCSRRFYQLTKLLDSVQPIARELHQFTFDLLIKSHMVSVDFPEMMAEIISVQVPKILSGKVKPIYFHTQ
Also: assay procedure not described here.

5-hydroxytryptamine receptor 2B, sequence (P41595 whole entry): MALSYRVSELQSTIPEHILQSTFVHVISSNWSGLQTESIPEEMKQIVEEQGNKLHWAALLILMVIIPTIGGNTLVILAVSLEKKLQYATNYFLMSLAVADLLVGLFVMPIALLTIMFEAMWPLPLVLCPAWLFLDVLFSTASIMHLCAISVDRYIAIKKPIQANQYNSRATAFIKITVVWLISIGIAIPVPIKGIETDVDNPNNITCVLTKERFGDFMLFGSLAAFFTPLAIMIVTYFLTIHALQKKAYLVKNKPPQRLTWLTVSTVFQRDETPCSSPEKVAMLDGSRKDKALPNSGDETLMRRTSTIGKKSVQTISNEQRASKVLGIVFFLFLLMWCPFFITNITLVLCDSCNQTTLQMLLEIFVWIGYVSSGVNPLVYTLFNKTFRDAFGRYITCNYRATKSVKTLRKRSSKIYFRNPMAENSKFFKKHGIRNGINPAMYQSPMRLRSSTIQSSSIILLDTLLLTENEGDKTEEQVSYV
Beta-3 adrenergic receptor, sequence (P13945 whole entry): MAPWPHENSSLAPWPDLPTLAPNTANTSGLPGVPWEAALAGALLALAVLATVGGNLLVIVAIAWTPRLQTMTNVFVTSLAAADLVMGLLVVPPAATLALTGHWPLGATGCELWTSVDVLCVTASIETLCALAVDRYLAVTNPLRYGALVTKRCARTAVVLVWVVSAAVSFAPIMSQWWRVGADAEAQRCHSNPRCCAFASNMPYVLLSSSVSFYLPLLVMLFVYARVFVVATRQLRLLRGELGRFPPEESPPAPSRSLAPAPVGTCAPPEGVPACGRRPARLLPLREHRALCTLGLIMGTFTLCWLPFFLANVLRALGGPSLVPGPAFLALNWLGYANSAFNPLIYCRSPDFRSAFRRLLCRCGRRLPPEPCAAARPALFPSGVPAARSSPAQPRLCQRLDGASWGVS
Voltage-dependent N-type calcium channel subunit alpha-1B, sequence (Q02294 whole entry): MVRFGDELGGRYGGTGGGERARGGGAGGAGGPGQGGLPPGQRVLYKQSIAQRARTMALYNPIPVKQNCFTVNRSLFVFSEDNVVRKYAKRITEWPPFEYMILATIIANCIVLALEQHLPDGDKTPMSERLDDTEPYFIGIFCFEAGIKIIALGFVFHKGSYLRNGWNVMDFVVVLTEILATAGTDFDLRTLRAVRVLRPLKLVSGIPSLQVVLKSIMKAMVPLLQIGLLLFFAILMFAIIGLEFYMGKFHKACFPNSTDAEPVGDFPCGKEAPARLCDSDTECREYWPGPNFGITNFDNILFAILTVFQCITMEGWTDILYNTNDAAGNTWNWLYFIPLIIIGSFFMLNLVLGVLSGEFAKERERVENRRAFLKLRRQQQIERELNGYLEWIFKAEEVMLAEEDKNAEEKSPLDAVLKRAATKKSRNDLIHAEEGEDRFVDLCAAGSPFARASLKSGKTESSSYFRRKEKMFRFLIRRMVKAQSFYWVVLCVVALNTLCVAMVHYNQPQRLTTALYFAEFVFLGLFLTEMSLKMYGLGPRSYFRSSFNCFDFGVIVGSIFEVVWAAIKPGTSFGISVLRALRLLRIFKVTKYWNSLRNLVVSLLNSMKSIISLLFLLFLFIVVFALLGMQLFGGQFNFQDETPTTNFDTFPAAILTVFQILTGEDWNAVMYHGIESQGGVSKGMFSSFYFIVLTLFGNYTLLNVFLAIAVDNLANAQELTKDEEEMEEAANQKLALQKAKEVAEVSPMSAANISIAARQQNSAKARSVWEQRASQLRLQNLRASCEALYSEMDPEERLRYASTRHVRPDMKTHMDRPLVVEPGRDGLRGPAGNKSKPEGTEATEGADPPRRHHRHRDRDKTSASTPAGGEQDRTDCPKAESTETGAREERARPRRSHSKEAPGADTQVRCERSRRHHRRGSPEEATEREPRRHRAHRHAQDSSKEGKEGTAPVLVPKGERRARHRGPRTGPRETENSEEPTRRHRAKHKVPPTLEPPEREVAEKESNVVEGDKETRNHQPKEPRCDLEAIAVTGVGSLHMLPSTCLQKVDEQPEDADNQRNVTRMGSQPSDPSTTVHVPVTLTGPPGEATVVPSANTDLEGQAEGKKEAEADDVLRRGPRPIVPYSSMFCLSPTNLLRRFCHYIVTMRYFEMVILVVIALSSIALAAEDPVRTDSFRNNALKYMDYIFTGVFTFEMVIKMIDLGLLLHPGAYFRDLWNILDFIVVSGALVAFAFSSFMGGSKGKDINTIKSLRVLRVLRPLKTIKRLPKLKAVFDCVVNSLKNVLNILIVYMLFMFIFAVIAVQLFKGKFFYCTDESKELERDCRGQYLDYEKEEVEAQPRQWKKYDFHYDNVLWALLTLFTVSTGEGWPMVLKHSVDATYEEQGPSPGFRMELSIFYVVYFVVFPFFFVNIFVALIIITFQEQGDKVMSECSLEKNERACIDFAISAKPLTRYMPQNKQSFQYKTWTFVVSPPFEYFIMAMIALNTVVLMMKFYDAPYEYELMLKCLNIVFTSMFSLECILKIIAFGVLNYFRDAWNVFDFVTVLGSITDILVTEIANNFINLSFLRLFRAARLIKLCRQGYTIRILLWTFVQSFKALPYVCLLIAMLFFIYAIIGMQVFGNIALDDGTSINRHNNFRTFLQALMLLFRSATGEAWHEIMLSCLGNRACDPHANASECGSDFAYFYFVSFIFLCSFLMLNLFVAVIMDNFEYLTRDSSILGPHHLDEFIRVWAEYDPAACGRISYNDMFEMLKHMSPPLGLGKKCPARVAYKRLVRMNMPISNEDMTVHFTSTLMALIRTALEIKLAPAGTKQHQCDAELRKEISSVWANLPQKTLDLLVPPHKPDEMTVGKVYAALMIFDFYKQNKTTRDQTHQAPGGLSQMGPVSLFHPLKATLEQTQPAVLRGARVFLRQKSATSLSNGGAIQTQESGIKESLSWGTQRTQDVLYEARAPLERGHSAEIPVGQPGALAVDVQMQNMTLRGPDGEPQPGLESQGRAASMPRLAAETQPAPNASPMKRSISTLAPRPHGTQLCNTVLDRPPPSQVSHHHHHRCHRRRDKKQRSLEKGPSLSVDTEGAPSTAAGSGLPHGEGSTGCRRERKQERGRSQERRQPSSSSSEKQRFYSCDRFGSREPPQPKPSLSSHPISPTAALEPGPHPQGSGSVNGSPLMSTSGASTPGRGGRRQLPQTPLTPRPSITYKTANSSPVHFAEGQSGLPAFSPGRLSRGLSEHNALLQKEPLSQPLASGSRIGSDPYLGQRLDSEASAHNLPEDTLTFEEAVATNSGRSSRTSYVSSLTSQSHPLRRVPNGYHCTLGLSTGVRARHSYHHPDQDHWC
Acetylcholinesterase, sequence (P22303 whole entry): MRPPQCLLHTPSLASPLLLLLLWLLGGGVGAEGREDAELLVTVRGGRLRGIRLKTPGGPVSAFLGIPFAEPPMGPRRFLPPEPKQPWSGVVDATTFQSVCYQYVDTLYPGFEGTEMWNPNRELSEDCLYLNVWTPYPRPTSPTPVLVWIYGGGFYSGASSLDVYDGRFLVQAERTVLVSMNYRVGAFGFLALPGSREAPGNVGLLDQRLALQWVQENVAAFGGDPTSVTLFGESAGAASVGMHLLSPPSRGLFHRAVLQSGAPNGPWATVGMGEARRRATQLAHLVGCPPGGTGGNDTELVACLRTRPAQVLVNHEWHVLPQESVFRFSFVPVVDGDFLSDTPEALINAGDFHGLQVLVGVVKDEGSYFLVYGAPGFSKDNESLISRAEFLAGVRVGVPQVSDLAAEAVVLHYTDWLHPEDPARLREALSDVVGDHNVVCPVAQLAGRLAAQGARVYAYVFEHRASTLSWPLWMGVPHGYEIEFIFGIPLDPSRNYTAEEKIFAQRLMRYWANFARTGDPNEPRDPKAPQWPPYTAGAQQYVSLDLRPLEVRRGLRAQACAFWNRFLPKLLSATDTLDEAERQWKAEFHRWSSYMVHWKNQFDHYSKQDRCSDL
T1 sequence (P21728 whole entry): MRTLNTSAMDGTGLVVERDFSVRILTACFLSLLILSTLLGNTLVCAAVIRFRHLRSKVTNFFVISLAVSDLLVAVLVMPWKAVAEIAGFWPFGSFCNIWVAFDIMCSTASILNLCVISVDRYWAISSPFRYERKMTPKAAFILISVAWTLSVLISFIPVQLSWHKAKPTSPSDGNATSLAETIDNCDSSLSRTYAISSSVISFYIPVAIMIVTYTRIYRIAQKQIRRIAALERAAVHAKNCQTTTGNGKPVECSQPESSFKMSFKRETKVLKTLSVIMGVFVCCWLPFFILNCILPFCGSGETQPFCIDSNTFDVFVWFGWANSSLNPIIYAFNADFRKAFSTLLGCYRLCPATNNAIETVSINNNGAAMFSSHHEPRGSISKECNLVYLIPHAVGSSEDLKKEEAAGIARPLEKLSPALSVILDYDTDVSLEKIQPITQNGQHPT
Synaptic vesicular amine transporter, sequence (Q01827 whole entry): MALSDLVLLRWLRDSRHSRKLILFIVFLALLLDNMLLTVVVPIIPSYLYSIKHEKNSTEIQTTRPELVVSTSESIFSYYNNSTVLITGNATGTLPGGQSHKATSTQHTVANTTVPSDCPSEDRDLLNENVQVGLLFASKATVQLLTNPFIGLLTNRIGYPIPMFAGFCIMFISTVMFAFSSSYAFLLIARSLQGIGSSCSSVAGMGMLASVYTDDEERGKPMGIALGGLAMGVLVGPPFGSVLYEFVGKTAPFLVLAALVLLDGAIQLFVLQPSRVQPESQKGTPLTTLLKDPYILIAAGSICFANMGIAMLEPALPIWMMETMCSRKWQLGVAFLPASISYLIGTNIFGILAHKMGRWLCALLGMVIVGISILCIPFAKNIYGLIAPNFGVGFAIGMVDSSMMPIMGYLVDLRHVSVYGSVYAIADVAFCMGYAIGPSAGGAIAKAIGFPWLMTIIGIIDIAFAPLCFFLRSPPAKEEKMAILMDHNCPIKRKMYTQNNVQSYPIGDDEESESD

| Compound | AC50 [3] [µM] | AC50 [4] [µM] | AC50 [5] [µM] | AC50 [6] [µM] | AC50 [7] [nM] | AC50 [8] [µM] | other results |
| --- | --- | --- | --- | --- | --- | --- | --- |
| OC[C@H]1NC[C@H](O)[C@@H](O)[C@H]1O |  |  |  |  |  |  | AC50 [1]: > 30000 nM |
| O=C(O)[C@@H](S)[C@@H](S)C(=O)O |  |  |  |  |  |  | AC50 (D(1A) dopamine receptor [2]): > 30 µM |
| CCOC(=O)[C@H](CCc1ccccc1)N[C@@H](C)C(=O)N1Cc2ccccc2C[C@H]1C(=O)O | > 30 | > 10 | > 30 | > 30 | > 10000 | > 30 |  |
| CCC[C@@]1(CCc2ccccc2)CC(O)=C([C@H](CC)c2cccc(NS(=O)(=O)c3ccc(C(F)(F)F)cn3)c2)C(=O)O1 |  |  |  |  |  |  | AC50 (D(1A) dopamine receptor [9]): 14 µM; AC50 (Acetylcholinesterase): > 30 µM |
| CC#CC(=O)N1CCC[C@H]1c1nc(-c2ccc(C(=O)Nc3ccccn3)cc2)c2c(N)nccn12 [ACALABRUTINIB] |  |  |  |  |  |  | AC50 (D(1A) dopamine receptor [2]): > 30 µM |
| CN(C)CCc1c[nH]c2ccc(CS(=O)(=O)N3CCCC3)cc12 [ALMOTRIPTAN] |  |  |  |  | 510 |  |  |
| CN(C)CCC=C1c2ccccc2CCc2ccccc21 [AMITRIPTYLINE] | > 30 | > 10 | > 30 | > 30 |  | > 30 | AC50 (Thromboxane A2 receptor [10]): > 30 µM; AC50 (Thromboxane A2 receptor [11]): > 30 µM |
| CN1CC2c3ccccc3Oc3ccc(Cl)cc3C2C1 (stereo unspecified) [ASENAPINE] |  |  |  |  |  |  | AC50 (D(1A) dopamine receptor [9]): 0.244 µM; AC50 [1]: 1050 nM; AC50 (Acetylcholinesterase): > 30 µM |
| CC(=O)Oc1ccccc1C(=O)O [ASPIRIN] | > 30 | > 10 | > 30 | > 30 | > 10000 | > 30 | AC50 (Thromboxane A2 receptor [10]): > 30 µM; AC50 (Thromboxane A2 receptor [11]): > 30 µM |
| CCN(CC)CCn1c(=O)c(Cc2ccc(OC)cc2)nc2ccccc21 [CAROVERINE] |  |  |  |  |  |  | AC50 (Androgen receptor): > 30 µM |
| O=C(Cc1cccs1)N[C@@H]1C(=O)N2C(C(=O)[O-])=C(C[n+]3ccccc3)CS[C@H]12 [CEPHALORIDINE] |  |  |  |  |  |  | AC50 (D(1A) dopamine receptor [2]): > 30 µM |
| C[C@H](CCC(=O)O)[C@H]1CC[C@H]2[C@@H]3[C@H](O)C[C@@H]4C[C@H](O)CC[C@]4(C)[C@H]3CC[C@]12C [CHENODIOL] |  |  |  |  |  |  | AC50 (D(1A) dopamine receptor [9]): > 30 µM; AC50 (Acetylcholinesterase): > 30 µM |
| CN(C)CCCC1(c2ccc(F)cc2)OCc2cc(C#N)ccc21 (stereo unspecified) [CITALOPRAM] | > 30 | > 10 | > 30 | > 30 | 273 | > 30 |  |
| C[C@H](Nc1ncnc2[nH]cnc12)c1cc2cccc(Cl)c2c(=O)n1-c1ccccc1 [DUVELISIB] |  |  |  |  |  |  | AC50 (Androgen receptor): > 30 µM; AC50 (D(1A) dopamine receptor [9]): > 30 µM; AC50 (D(1A) dopamine receptor [2]): > 30 µM; AC50 (Acetylcholinesterase): > 30 µM |
| O=c1[nH]c2ccccc2n1CCN1CCN(c2cccc(C(F)(F)F)c2)CC1 [FLIBANSERIN] |  |  |  |  |  |  | AC50 [1]: 72 nM |
| C[C@]12CCC(=O)C=C1CC[C@H]1[C@@H]3CC[C@](O)(C(=O)CO)[C@@]3(C)C[C@H](O)[C@@]12F [FLUDROCORTISONE] | > 30 | > 10 | > 30 | > 30 | > 10000 | > 30 |  |
